From patent US9011853B2, “B7-H4 fusion proteins and methods of use thereof” (Amplimmune, Inc., priority 2009, dated 2015)
Where “and” joins values, the source holds several entries; their conditions need not be identical. Identical values can stand only once.

Tested on: serum levels of 58 analytes
Assay: Serum biomarker analysis, quantitative immunoassay multi-analyte profiling (Rules-Based Medicine RodentMAP v2.9), AA#80
Type: in vivo, mouse
Conditions: serum
Experimental: In AA#80, serum samples were collected on Day 27, Day 34, Day 41 and Day 55 via the submandibular vein. Approximately 200 μL of blood per mouse was collected in Microtainer® serum separator tubes. Serum was removed following centrifugation and stored at <−65° C. until analysis.
Selected serum samples were sent to Rules-Based Medicine (Austin, Tex.) for quantitative immunoassay multi-analyte profiling of serum samples, with the goal of identifying biomarkers that could be used to monitor disease progression and response to B7-H4-Ig treatment. Day 27, Day 34, and Day 41 sera from the three representative mice in the B7-H4-Ig group (tag #3332, 3334, and 3338) and three representative mice in the Synagis® group (tag #3324, 3329, and 3330) were analyzed for levels of 58 analytes using the RodentMAP v2.9 Testing Service.
Data from the Rules-Based Medicine analysis was analyzed using Microsoft Excel and GraphPad Prism software. T-tests were performed to compare the levels of each analyte in the B7-H4-Ig versus Synagis® treated samples. No correction was made for multiple comparisons. Additionally, correlation coefficients were calculated for each analyte versus disease score.

**Q.** For “Human B7-H4-Ig: human B7-H4 extracellular domain fused to hinge, CH2 and CH3 regions of human immunoglobulin Cγ1 chain; representative SEQ ID NOs:114-137”, which “MIP-1beta (Macrophage Inflammatory Protein-1beta)” value (Day 27, LDD 77.65) is on record?
**A.** 110 pg/mL and 115 pg/mL and 173 pg/mL

**Q.** What about the Lymphotactin (Day 27, LDD 85.48) of the same substance?
**A.** 164 pg/mL and 169 pg/mL and 194 pg/mL

**Q.** And the “VWF (Von Willebrand Factor)” value (Day 27, LDD 98.6)?
**A.** 143 ng/mL and 123 ng/mL and 107 ng/mL

**Q.** And the “M-CSF (Macrophage-Colony Stimulating Factor)” value (Day 34, LDD 0.01795)?
**A.** 5.79 ng/mL and 6.35 ng/mL and 6.51 ng/mL

**Q.** What about the “MIP-1gamma (Macrophage Inflammatory Protein-1gamma)” value (Day 34, LDD 0.0736) of the same substance?
**A.** 50.4 ng/mL and 30.1 ng/mL and 41 ng/mL

**Q.** And the “TNF-alpha (Tumor Necrosis Factor-alpha)” value (Day 34, LDD 0.137)?
**A.** <low>

**Q.** What about the “IL-5 (Interleukin-5)” value (Day 34, LDD 0.194) of the same substance?
**A.** 0.474 ng/mL and 0.264 ng/mL and 0.403 ng/mL

**Q.** What about the “MIP-1alpha (Macrophage Inflammatory Protein-1alpha)” value (Day 34, LDD 0.2255) of the same substance?
**A.** 3.03 ng/mL and 2.88 ng/mL and 3.08 ng/mL

**Q.** What about the “MIP-3beta (Macrophage Inflammatory Protein-3beta)” value (Day 34, LDD 0.465) of the same substance?
**A.** 2.79 ng/mL and 2.49 ng/mL and 3.11 ng/mL

**Q.** What about the “Tissue Factor” value (Day 34, LDD 0.5175) of the same substance?
**A.** 10.8 ng/mL and 10.4 ng/mL and 13.3 ng/mL

**Q.** What about the “MPO (Myeloperoxidase)” value (Day 34, LDD 0.95) of the same substance?
**A.** 247 ng/mL and 254 ng/mL and 242 ng/mL

**Q.** And the “TPO (Thromboproletin)” value (Day 34, LDD 2.66)?
**A.** 43.4 ng/mL and 30.4 ng/mL and 36.1 ng/mL

**Q.** And the “SAP (Setrum Amtyloid P)” value (Day 34, LDD 5.4)?
**A.** 51.8 µg/mL and 31 µg/mL and 42.6 µg/mL

**Q.** What about the “MIP-2 (Macrophage Inflammatory Protein-2)” value (Day 34, LDD 7.174) of the same substance?
**A.** 36.8 pg/mL and 26.6 pg/mL and 22.2 pg/mL

**Q.** And the “MMP-9 (Matrix Metalloproteinase-9)” value (Day 34, LDD 10)?
**A.** 503 ng/mL and 334 ng/mL and 255 ng/mL

**Q.** What about the “MCP-1 (Monocyte Chemoattractant Protein-1)” value (Day 34, LDD 16.924) of the same substance?
**A.** 84.6 pg/mL and 56 pg/mL and 101 pg/mL

**Q.** What about the “VCAM-1 (Vescular Cell Adhesion Molecule-1)” value (Day 34, LDD 19) of the same substance?
**A.** 1860 ng/mL and 2190 ng/mL and 2470 ng/mL

**Q.** And the “MDC (Macrophage-Derived Chemokine)” value (Day 34, LDD 21.85)?
**A.** 1390 pg/mL and 1120 pg/mL and 1360 pg/mL

**Q.** And the “VEGF (Vescular Endotheial Cell Growth Factor)” value (Day 34, LDD 38.2)?
**A.** 160 pg/mL and 141 pg/mL and 155 pg/mL

**Q.** And the “IP-10 (Inducible Protein-10)” value (Day 34, LDD 40.28)?
**A.** 81 pg/mL and 59 pg/mL and 54.2 pg/mL

**Q.** What about the “LIF (Leukemia Infabitory Factor)” value (Day 34, LDD 43.6) of the same substance?
**A.** 1430 pg/mL and 1500 pg/mL and 1480 pg/mL

**Q.** And the “MCP-5 (Monocyte Chemoattractant Protein-5)” value (Day 34, LDD 46.38)?
**A.** 57.8 pg/mL and 29.2 pg/mL and 46.7 pg/mL

**Q.** What about the “SCF (Stem Cell Factor)” value (Day 34, LDD 75.17) of the same substance?
**A.** 182 pg/mL and 220 pg/mL and 217 pg/mL

**Q.** What about the Lymphotactin (Day 34, LDD 85.48) of the same substance?
**A.** 196 pg/mL and 162 pg/mL and 197 pg/mL

**Q.** And the “VWF (Von Willebrand Factor)” value (Day 34, LDD 98.6)?
**A.** 101 ng/mL and 137 ng/mL and 135 ng/mL

**Q.** And the “M-CSF (Macrophage-Colony Stimulating Factor)” value (Day 41, LDD 0.01795)?
**A.** 5.02 ng/mL and 5.67 ng/mL and 6.07 ng/mL

**Q.** And the “MIP-1gamma (Macrophage Inflammatory Protein-1gamma)” value (Day 41, LDD 0.0736)?
**A.** 42.8 ng/mL and 32.7 ng/mL and 42.5 ng/mL

**Q.** What about the “OSM (Oncostatin M)” value (Day 41, LDD 0.13) of the same substance?
**A.** <low>

**Q.** And the “TNF-alpha (Tumor Necrosis Factor-alpha)” value (Day 41, LDD 0.137)?
**A.** <low>

**Q.** And the “IL-5 (Interleukin-5)” value (Day 41, LDD 0.194)?
**A.** 0.474 ng/mL and 0.254 ng/mL and 0.264 ng/mL

**Q.** And the “MIP-1alpha (Macrophage Inflammatory Protein-1alpha)” value (Day 41, LDD 0.2255)?
**A.** 3.13 ng/mL and 2.93 ng/mL and 3.03 ng/mL

**Q.** And the “IL-7 (Interleukin-7)” value (Day 41, LDD 0.309)?
**A.** <low>

**Q.** And the “MIP-3beta (Macrophage Inflammatory Protein-3beta)” value (Day 41, LDD 0.465)?
**A.** 3.05 ng/mL and 3.03 ng/mL and 2.87 ng/mL

**Q.** What about the “Tissue Factor” value (Day 41, LDD 0.5175) of the same substance?
**A.** 10.8 ng/mL and 9.17 ng/mL and 9.37 ng/mL

**Q.** And the “MPO (Myeloperoxidase)” value (Day 41, LDD 0.95)?
**A.** 208 ng/mL and 228 ng/mL and 285 ng/mL

**Q.** And the “SGOT (Serum Glutamic-Oxaloacetic Transaminase)” value (Day 41, LDD 1.86)?
**A.** 85.8 µg/mL and 93.9 µg/mL and 71.1 µg/mL

**Q.** What about the “TPO (Thromboproletin)” value (Day 41, LDD 2.66) of the same substance?
**A.** 38 ng/mL and 32.4 ng/mL and 36.1 ng/mL

**Q.** And the “SAP (Setrum Amtyloid P)” value (Day 41, LDD 5.4)?
**A.** 47.9 µg/mL and 38.6 µg/mL and 46 µg/mL

**Q.** What about the “MIP-2 (Macrophage Inflammatory Protein-2)” value (Day 41, LDD 7.174) of the same substance?
**A.** 25.9 pg/mL and 23.4 pg/mL and 19.7 pg/mL

**Q.** And the “MCP-1 (Monocyte Chemoattractant Protein-1)” value (Day 41, LDD 16.924)?
**A.** 71.9 pg/mL and 53.1 pg/mL and 74.8 pg/mL

**Q.** And the “VCAM-1 (Vescular Cell Adhesion Molecule-1)” value (Day 41, LDD 19)?
**A.** 1840 ng/mL and 1940 ng/mL and 2390 ng/mL

**Q.** And the “MDC (Macrophage-Derived Chemokine)” value (Day 41, LDD 21.85)?
**A.** 1350 pg/mL and 1110 pg/mL and 1290 pg/mL

**Q.** What about the “MCP-3 (Monocyte Chemoattractant Protein-3)” value (Day 41, LDD 31.36) of the same substance?
**A.** 197 pg/mL and 115 pg/mL and 132 pg/mL
